Test results taken from patent US20150174194A1, “METHODS FOR TREATING LIVER TRANSPLANT RECIPIENTS” (AbbVie Inc., priority 2013, published 2015).

What was measured:
[1] = Immunosuppressant blood concentrations in liver transplant recipients co-dosed with 3D; assay type: in vivo, human
Experimental: Patients (n=34) on stable TAC or CSA therapy, at least 12 months post-LT, fibrosis stage <F2, received 3D +RBV for 24 weeks. When co-dosed with 3D, it was recommended that the prestudy total CSA daily dose be reduced to one-fifth and given QD. For TAC, a dose of 0.5 mg/7 days or 0.2 mg/3 days was recommended. Subsequent dose and dosing frequency modifications in TAC were made based on the individual TAC levels. Observed CSA trough concentrations (Ctrough) were summarized for CSA recipients (n=5) while TAC data (n=29) were interrogated further to profile on-study TAC Ctroughs. A nonlinear mixed effects model was used to characterize TAC concentration-time profiles using NONMEM software. A one compartment pharmacokinetic (PK) model with first order oral absorption and between subject variability on apparent clearance was used to describe the TAC data. The model estimated TAC PK parameters were used to predict TAC concentration-time profiles in order to evaluate TAC dosing strategies when co-dosed with 3D.

[2] = human, in vivo
Text: The Example summarizes the management of concentrations of the immunosuppressants, tacrolimus (TAC) and cyclosporine (CSA) during the treatment.

[3] = co-dosed with 3D, TAC dose 0.2-1 mg, CSA dose 25-75 mg, liver transplant recipients

Structure (SMILES): C=CC[C@@H]1/C=C(\C)C[C@H](C)C[C@H](OC)[C@H]2O[C@@](O)(C(=O)C(=O)N3CCCC[C@H]3C(=O)O[C@H](/C(C)=C/[C@@H]3CC[C@@H](O)[C@H](OC)C3)[C@H](C)[C@@H](O)CC1=O)[C@H](C)C[C@@H]2OC [TAC, tacrolimus]
- Concentrations with recommended dose modifications ([1]; LT recipients with GT1 HCV infection receiving 3D): within the therapeutic range
- Blood concentration, interquartile range (IQR) [1, 3]: 3.3 to 6.6 ng/mL
- Blood concentration, median [1, 3]: 4.6 ng/mL
- Increase in concentration 24 hours after co-dosing with 3D [2]: 17 fold
